Values quoted from earlier work in patent US20240000880A1, “A PHARMACEUTICAL COMPOSITION FOR PREVENTING AND TREATING LUNG INJURY, A PREPARATION METHOD THEREFOR AND A USE THEREOF” (priority 2020, published 2024).

Tested on: rats with chronic obstructive pulmonary disease
Conditions: rats with COPD; previous studies

Oc1ccc(C=Cc2cc(O)cc(O)c2)cc1 [resveratrol]
antioxidant efficacy on chronic obstructive pulmonary disease: has antioxidant efficacy
lung function: can improve lung function to some extent
